Source: patent US10428024B2, “Piperidinyl derivatives” (MERCK PATENT GMBH, priority 2016, dated 2019)

Legend:
PDHK2 = PDHK2 (Homo sapiens (Human), UniProt Q15119); assay: Biochemical activity testing of PDHK2: PDC inactivation assay; conditions: human rec PDHK2, 5 μM ATP, read-out: IC50 PDHK2 (enzyme assay)
Source text: Biochemical Activity Testing of PDHK2: PDC Inactivation Assay
The biochemical activity assay for PDHK2 is based on the inactivation of PDC through phosphorylation by PDHK2. The assay is run in two steps: the enzymatic PDHK2 reaction in which isolated PDC is phosphorylated by PDHK2 with ATP as co-substrate and the PDC activity assay in which pyruvate and NAD are converted to acetyl-CoA and NADH. The PDC activity correlates to the increase in NADH and thereby is detectable directly via the increasing fluorescence signal (Exc 340 nm, Em 450 nm). Inhibition of PDHK2 results in a lower phosphorylation status and thereby a less decrease in activity of PDC and a stronger increase in NADH fluorescence signal.
The PDC inactivation assay is performed in Greiner 384-well microtiter plates and is used for high throughput screen. 4 μl of PDHK2 (human, rec, Carna Bioscience, 10 ng/μl-137 nM final concentration) and PDC (isolated from porcine heart, Sigma-Aldrich, 20 mU/ml final concentration) are incubated in the absence or presence of the test compound (10 dilution concentrations) for 30 min at room temperature in kinase buffer (15 mM potassium phosphate buffer, pH 7.0, 60 mM KCl, 1.5 mM DTT, 2.5 mM MgCl2, 0.0125% (w/v) BSA, 0.125% Pluronic F-68). The kinase reaction is started by the addition of 4 μl ATP substrate solution (fc 5 μM in kinase buffer). After 30 min incubation at 37° C. 40 μl of PDC reaction solution (100 mM Tris/HCl, pH 7.8, 0.5 mM EDTA, 1 mM MgCl2, 50 mM NaF, 0.25 mM Coenzyme A, 5 mM pyruvate, 1 mM NAD, 5 mM DTT, 1 mM thiamine pyrophosphate) is added. The first fluorescence measurement is performed on a Perkin Elmer Envision (Exc 340 nm, Em 450 nm). The reaction is incubated for 45 min at room temperature. Afterwards a second fluorescence measurement is performed and the PDC activity is calculated by the difference between both measurements. As full value for the PDHK2 assay the inhibitor-free PDHK2 reaction is used. The pharmacological zero value used is DCA (Sigma-Aldrich) in a final concentration of 3 mM. The inhibitory values (IC50) were determined using either the program Symyx Assay Explorer® or Condosseo® from GeneData.

[1] = test system: PDH-E1alpha (pSer300) in HEK293T cells; assay: Cellular immunofluorescence assay (Anti-PDH-E1alpha (pSer300)) in HEK293T cells; format: cell-based; conditions: Homo sapiens, HEK-293T, 5 hours incubation, read-out: IC50 (cell data)
Experimental: Cellular Assay for Determination of Compound Activities
Compound activities were determined in a cellular immunofluorescence assay.
Human HEK293T cells were seeded into black 384-well plates with clear bottom and grown overnight.
Next day, test compounds were added to the wells and the plates incubated for 5 hours. Following this, cells were fixed with formaldehyde, permeabilised and blocked. The primary antibody, Anti-PDH-E1alpha (pSer300), AP1064 (Merck Millipore) was added and incubated overnight in the plate wells. Next, cells were washed and the secondary antibody, Alexa Fluor 488, goat anti-rabbit ab (A-11008, Invitrogen) was added together with Hoechst 33258 (H3569, Invitrogen) and incubated for 1 hour in the plate wells. Finally, cells were washed and the plates were measured on the laser scanning cytometer acumen hci (TTpLabtech).
The raw data were normalized against a pharmacological inhibitor control and dose response curves were generated by plotting the percent effect values using the software package Genedata screener (Genedata).

human PDHK2 (12-407) = human PDHK2 (12-407) (Homo sapiens (Human), UniProt Q15119); assay: Isothermal titration calorimetry (ITC); conditions: 30° C., pH 7.5; read-out: Binding (ITC) KD
Experimental: Isothermal Titration Calorimetry
ITC measurements were performed with a VP-ITC micro calorimeter (Microcal, LLC/GE Healthcare Bio-Sciences AB, Uppsala, Sweden). In general titrations were performed by titrating the protein (50 μM) to the test compound (5 μM) in 12 μl injections. All binding experiments were carried out at 30° C. In general the test compounds were diluted form DMSO stock solutions into the measurement buffer with a maximum final concentration of 1% DMSO. The measurement buffer was 20 mM HEPES, 135 mM KCl, 1 mM TCEP, 2 mM MgCl2, 15 mM NaH2PO4, pH 7.5. The human PDHK2 (12-407) was produced in E. coli as his-tagged protein and purified by affinity chromatography. The tag was removed by side specific proteolysis. Before titration the protein buffer was changed to the measurement buffer containing the same DMSO concentration as the test compound dilution. ITC data analysis was performed using Origin 7 calorimetry software from the same supplier. For most measurements a binding model of one binding site was assumed. According to the applied mathematical model it is possible to calculate the binding constant (KA), the observed binding enthalpy (ΔH^obs) as well as the stoichiometry (N) of the formed complex. Preceding analysis the raw data was corrected for the heats of dilution by extrapolating from the saturation value from the end of titration. In order to allow for direct comparison between the respective experimental series and protein preparations the protein concentration was corrected by referencing titrations to a well behaved standard inhibitor. The apparent stoichiometry values defined the fraction of binding competent protein and compensated for relative errors in protein concentration measurements. This corrected protein concentration was used to set up ITC experiment series with test compounds. Any deviations from ideal 1:1 stoichiometry observed here were attributed to errors in compound concentration. This nominal compound concentration was corrected as well to achieve 1:1 stoichiometry in the fit.

Row | SMILES | IC50 (PDHK2) [nM] | Kd (human PDHK2 (12-407)) [nM] | IC50 [1] [nM]
1 | CN(C(=O)c1ccc(Cl)cc1)C1CCN(C(=O)[C@@](C)(O)C(F)(F)F)CC1 [Compound A16, 4-Chloro-N-methyl-N-{1-[(2R)-3,3,3-trifluoro-2-hydroxy-2-methylpropanoyl]piperidin-4-yl}benzamide] | 390 | 154 | 1500
2 | Cc1ccc(C(=O)N(C)C2CCN(C(=O)[C@@](C)(O)C(F)(F)F)CC2)cc1 [Compound A17, N,4-Dimethyl-N-{1-[(2R)-3,3,3-trifluoro-2-hydroxy-2-methylpropanoyl]piperidin-4-yl}benzamide] | 250 | 110 | 1000
3 | Cc1ccc(C(=O)N(C)C2CCN(C(=O)[C@@](C)(O)C(F)(F)F)CC2)c(F)c1 [Compound A18, 2-Fluoro-4,N-dimethyl-N-{1-[(R)-3,3,3-trifluoro-2-hydroxy-2-methyl-propionyl]-piperidin-4-yl}-benzamide] | 260 | 69 | 700
4 | CN(C(=O)c1ccc(C(F)(F)F)cc1Cl)C1CCN(C(=O)[C@@](C)(O)C(F)(F)F)CC1 [Compound A19, 2-Chloro-N-methyl-N-{1-[(2R)-3,3,3-trifluoro-2-hydroxy-2-methylpropanoyl]piperidin-4-yl}-4-(trifluoromethyl)benzamide] | 550 | 53 | 520
5 | CN(C(=O)C1CCN(C(=O)[C@@](C)(O)C(F)(F)F)CC1)c1ccc(C(F)(F)F)cc1Cl [Compound A3, 1-((R)-3,3,3-Trifluoro-2-hydroxy-2-methyl-propionyl)-piperidine-4-carboxylic acid (2-chloro-4-trifluoromethyl-phenyl)-methyl-amide] | 410 | 38 | 2100
6 | C[C@@H]1CN(C(=O)[C@@](C)(O)C(F)(F)F)CC[C@@H]1C(=O)N(C)c1ccc(Cl)cc1 [Compound A10, (3S,4S)—N-(4-chlorophenyl)-N,3-dimethyl-1-[(2R)-3,3,3-trifluoro-2-hydroxy-2-methylpropanoyl]piperidine-4-carboxamide] | 110 | 26 | 170
7 | Cc1ccc(N(C)C(=O)[C@H]2CCN(C(=O)[C@@](C)(O)C(F)(F)F)C[C@H]2C)cc1 [Compound A7, (3S,4S)—N,3-Dimethyl-N-(4-methylphenyl)-1-[(2R)-3,3,3-trifluoro-2-hydroxy-2-methylpropanoyl]piperidine-4-carboxamide] | 160 | 31 | 19
8 | CC1CN(C(=O)[C@@](C)(O)C(F)(F)F)CCC1C(=O)N(C)c1ccc(Cl)cc1 (stereo partly drawn) [Compound A9, N-(4-chlorophenyl)-N,3-dimethyl-1-[(2R)-3,3,3-trifluoro-2-hydroxy-2-methylpropanoyl]piperidine-4-carboxamide] | 270 | 100 | 230

Continued, in another order:

Row | IC50 (PDHK2) [nM] | Kd (human PDHK2 (12-407)) [nM] | SMILES | IC50 [1] [nM]
9 | 410 | 51 | C[C@@H]1CN(C(=O)[C@@](C)(O)C(F)(F)F)CC[C@@H]1N(C)C(=O)c1ccc(F)cn1 [Compound A53, 5-Fluoro-N-methyl-N-[(3R,4S)-3-methyl-1-[(2R)-3,3,3-trifluoro-2-hydroxy-2-methylpropanoyl]piperidin-4-yl]pyridine-2-carboxamide] | 340
10 | 150 | 13 | C[C@@H]1CN(C(=O)[C@@](C)(O)C(F)(F)F)CC[C@@H]1N(C)C(=O)c1ccc(F)cc1Cl [Compound A50, 2-Chloro-4-fluoro-N-methyl-N-[(3R,4S)-3-methyl-1-[(2R)-3,3,3-trifluoro-2-hydroxy-2-methylpropanoyl]piperidin-4-yl]benzamide] | 61
11 | 710 | 46 | C[C@@H]1CN(C(=O)[C@@](C)(O)C(F)(F)F)CC[C@@H]1N(C)C(=O)c1ccccc1 [Compound A32, N-Methyl-N-[(3R,4S)-3-methyl-1-[(2R)-3,3,3-trifluoro-2-hydroxy-2-methylpropanoyl]piperidin-4-yl]benzamide] | 140
12 | 2100 | 350 | CCN(C(=O)c1ccc(C#N)cc1)C1CCN(C(=O)[C@@](C)(O)C(F)(F)F)CC1 [Compound A66, 4-Cyano-N-ethyl-N-[1-((R)-3,3,3-trifluoro-2-hydroxy-2-methyl-propionyl)-piperidin-4-yl]-benzamide] | 2700
13 | 98 | 20 | C[C@@H]1CN(C(=O)[C@@](C)(O)C(F)(F)F)CC[C@@H]1N(C)C(=O)c1ccc(Cl)cc1F [Compound A59, 4-Chloro-2-fluoro-N-methyl-N-[(3R,4S)-3-methyl-1-[(2R)-3,3,3-trifluoro-2-hydroxy-2-methylpropanoyl]piperidin-4-yl]benzamide] | 53
14 | 230 | 35 | C[C@@H]1CN(C(=O)[C@@](C)(O)C(F)(F)F)CC[C@@H]1N(C)C(=O)c1ccc(C(F)(F)F)cc1F [Compound A47, 2-Fluoro-N-methyl-N-[(3R,4S)-3-methyl-1-[(2R)-3,3,3-trifluoro-2-hydroxy-2-methylpropanoyl]piperidin-4-yl]-4-(trifluoromethyl)benzamide] | 190
15 | 260 | 57 | C[C@@H]1CN(C(=O)[C@@](C)(O)C(F)(F)F)CC[C@@H]1N(C)C(=O)c1ccc(Cl)cc1 [Compound A21, 4-Chloro-N-methyl-N-[(3R,4S)-3-methyl-1-[(2R)-3,3,3-trifluoro-2-hydroxy-2-methylpropanoyl]piperidin-4-yl]benzamide] | 160
